Results on one compound are retold here after patent US20160046672A1, “STAPLING eIF4E INTERACTING PEPTIDES” (AGENCY FOR SCIENCE, TECHNOLOGY AND RESEARCH, priority 2013, published 2016).

One data set deals with T1, eIF4E (Homo sapiens, UniProt P06730).
T1 construct: made in house
In words: eIF4E affinity (SPR/FP, method not named). The class given is binding. The settings on record: stronger binding. On the procedure:
Apparent Kd values were determined for a variety of molecules via competitive anisotropy anisotropy experiments. Titrations were carried out with the concentrations eIF4E held constant at 200 nM, respectively and the labeled peptide at 50 nM. The competing molecules were then titrated against complex of the FAM labeled peptide and protein. Apparent Kd values were determined by fitting the experimental data to the equations shown below: […]
Six buffer blanks were first injected to equilibrate the instrument fully and then a solvent correction curve was performed followed by a further two blank injections. […] Using a flow rate of 50 μl/min, compounds were injected for 60 s and dissociation was monitored for 180 s. The data collection rate was 10 Hz. Kds were determined using the BiaEvaluation software (Biacore) and calculated kinetically from the dissociation and association phase data for each of the peptides. The kinetic data were fitted to 1:1 binding models. Each individual peptide Kd was determined from three separate titrations. Within each titration at least two concentration points were duplicated to ensure stability and robustness of the chip surface.

The test system of another data set is MDA-MB-468 cells. In words: Normalized luminescence / cell viability, FIG. 12A. In kind it is cell-based. The settings on record: MDA-MB-468, increasing peptide concentration. How it is done: (§1) FIG. 12A is a dot plot representing normalized luminescence in MDA-MB-468 and MDA-MB-231 cells over increased concentration of staple peptides. MDA-MB-468 and MDA-MB-231 cells were lysed and a recombinant luciferase protein was added to the lysed cells.

Data set [1] relates to MDA-MB-231 cells. In words: Normalized luminescence / cell viability, FIG. 12A. The class given is cell-based. Particulars: MDA-MB-231, increasing peptide concentration. On the procedure:
as §1

The test system of data set [2] is MDA-MB-231 cells. In words: Western Blot of protein levels in treated cells, FIG. 12B. In kind it is cell-based. The settings on record: MDA-MB-231, absence or presence of 10% Fetal calf serum, 1% DMSO. An excerpt: Actin protein is a loading control to indicate that the same amount of proteins was loaded into each well.
The nature of a further data set: circular dichroism. The settings on record: 5 mM sodium phosphate; pH 7.0; ns °C; 0.5 or 2 mg/mL. In general terms: Circular dichroism is widely used to follow secondary structure.

T1 sequence (P06730 whole entry): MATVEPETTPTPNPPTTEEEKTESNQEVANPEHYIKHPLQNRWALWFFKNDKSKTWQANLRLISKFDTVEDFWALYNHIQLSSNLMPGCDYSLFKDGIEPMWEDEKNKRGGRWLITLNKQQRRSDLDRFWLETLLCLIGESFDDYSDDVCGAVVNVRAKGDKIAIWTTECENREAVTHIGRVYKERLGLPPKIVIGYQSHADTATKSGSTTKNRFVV

`CC(=O)N[C@@H](CCCCN)C(=O)N[C@@H](CCCCN)C(=O)N[C@@H](CCCNC(=N)N)C(=O)N[C@@H](Cc1ccc(O)cc1)C(=O)N[C@@H](CO)C(=O)N[C@@H](CCCNC(=N)N)C(=O)N[C@@H](CCC(=O)O)C(=O)N[C@]1(C)CCCC=CCCC[C@@](C)(C(=O)N[C@@H](Cc2ccccc2)C(N)=O)NC(=O)[C@H](CC(C)C)NC(=O)[C@H](CC(C)C)NC1=O` [sTIP-03, KKRYSRE*LL*F]: the “fold decrease / improvement in Kd over eIF4G^D5S” value on eIF4E was 17 fold. The “cell viability (normalized luminescence)” value with MDA-MB-468 cells was “decreases cell viability in a dose-dependent manner”. For the same compound, the “cell viability (normalized luminescence)” value with MDA-MB-231 cells [1] is “decreases cell viability in a dose-dependent manner”. For the same compound, in the data set on MDA-MB-231 cells [2], the Bcl-XL protein levels entry was “down-regulates” and the survivin protein levels entry is “down-regulates”. Besides, the helicity in “circular dichroism” was determined as 45%.
